Measurements taken from ChEMBL document CHEMBL1141309, “Isoechinulin-type alkaloids, variecolorins A-L, from halotolerant Aspergillus variecolor” (J Nat Prod, 2007).

Legend:
[1] = test system: HL-60; test: Cytotoxicity against human HL60 cells after 72 hrs by MTT assay; assay type: functional, cell-based; details: HL-60, 72 h
[2] = test system: P388; test: Cytotoxicity against mouse P388 cells after 72 hrs by MTT assay; assay type: functional, cell-based; details: P388, 72 h
[3] = test system: Bel-7402; test: Cytotoxicity against human BEL-7402 cells after 24 hrs by SRB assay; assay type: functional, cell-based; details: Bel-7402, 24 h
[4] = Cytotoxicity against human […] cells after 24 hrs by SRB assay; assay type: functional, cell-based
[5] = DPPH radical scavenging activity; assay type: functional

SMILES | IC50 [5] [µM] | IC50 [1] [µM] | IC50 [2] [µM] | IC50 [3] [µM] | IC50 [4] [µM]
C=CC(C)(C)c1[nH]c2c(C[C@@H](O)C(C)(C)Cl)cccc2c1/C=C1\NC(=O)[C@H](C)NC1=O [VARIECOLORIN F] | 77 | > 50 | > 50 | > 50 | > 50
C=CC(C)(C)c1[nH]c2c(CC=C(C)C)cccc2c1C[C@@H]1NC(=O)[C@H](C)NC1=O [TARDIOXOPIPERAZINE B] | 899 |  |  |  | 
C=CC(C)(C)c1[nH]c2ccccc2c1/C=c1\[nH]c(=O)c(=C)[nH]c1=O [NEOECHINULIN B] | 65 |  |  |  | 
CC(=O)O[C@H]1C(=O)[C@@]2(C)[C@H]([C@H](OC(=O)c3ccccc3)[C@]3(O)C[C@H](OC(=O)[C@H](O)[C@@H](NC(=O)c4ccccc4)c4ccccc4)C(C)=C1C3(C)C)[C@]1(OC(C)=O)CO[C@@H]1C[C@@H]2O [PACLITAXEL] |  | 0.93 | 0.93 | 0.93 | 0.93
C=CC(C)(C)c1[nH]c2c(CC=C(C)C)cc(CC=C(C)C)cc2c1C[C@@H]1NC(=O)[C@H](C)NC1=O [ECHINULIN] | 569 |  |  |  | 
C=CC(C)(C)c1[nH]c2cc3c(cc2c1/C=C1\NC(=O)[C@H](C)NC1=O)C[C@H](C(C)(C)O)OC3(C)C [VARIECOLORIN K] | 89 | > 50 | > 50 | > 50 | > 50
C=CC(C)(C)c1[nH]c2ccc(C[C@H]3OC(C)(C)OC3(C)C)cc2c1/C=C1\NC(=O)[C@H](C)NC1=O [VARIECOLORIN D] | 88 | > 50 | > 50 | > 50 | > 50
C=CC(C)(C)c1[nH]c2ccc(CC=C(C)C)c(CC=C(C)C)c2c1C[C@@H]1NC(=O)[C@H](C)NC1=O [VARIECOLORIN L] | 623 | > 50 | > 50 | > 50 | > 50
C=CC(C)(C)c1[nH]c2ccccc2c1/C=C1\NC(=O)C(C)(OC)NC1=O (stereo unspecified) [VARIECOLORIN H] | 99 | > 50 | > 50 | > 50 | > 50
C=CC(C)(C)c1[nH]c2ccc(CC=C(C)C)cc2c1C[C@@H]1NC(=O)[C@H](C)NC1=O [TARDIOXOPIPERAZINE A] | 912 |  |  |  | 
C=CC(C)(C)c1[nH]c2ccccc2c1C[C@@H]1NC(=O)[C@H](C)NC1=O [PREECHINULIN] | 1000 |  |  |  | 
O=C1O[C@H]([C@@H](O)CO)C(O)=C1O [ASCORBIC ACID] | 22 |  |  |  | 

Continued, in another order:

IC50 [5] [µM] | SMILES | IC50 [1] [µM] | IC50 [2] [µM] | IC50 [3] [µM] | IC50 [4] [µM]
79 | C=CC(C)(C)c1[nH]c2ccc(CC(=O)C(C)C)cc2c1/C=C1\NC(=O)[C@H](C)NC1=O [VARIECOLORIN E] | > 50 | > 50 | > 50 | > 50
79 | C=CC(C)(C)c1[nH]c2ccc(C[C@@H](O)C(C)(C)Cl)cc2c1/C=C1\NC(=O)[C@H](C)NC1=O [VARIECOLORIN A] | > 50 | > 50 | > 50 | > 50
79 | C=CC(C)(C)c1[nH]c2ccc(CC=C(C)C)cc2c1/C=C1\NC(=O)C(C)(OC)NC1=O (stereo unspecified) [VARIECOLORIN I] | > 50 | > 50 | > 50 | > 50
98 | C=CC(C)(C)c1[nH]c2ccc(CC=C(C)C)cc2c1/C=C1\NC(=O)[C@H](C)NC1=O [ISOECHINULIN A] |  |  |  | 
86 | C=CC(C)(C)c1[nH]c2c(CC=C(C)C)cccc2c1/C=C1\NC(=O)[C@H](C)NC1=O [VARIECOLORIN G] | > 50 | > 50 | > 50 | > 50
75 | C=CC(C)(C)c1[nH]c2ccc(C[C@@H](O)C(=C)C)cc2c1/C=C1\NC(=O)[C@H](C)NC1=O [VARIECOLORIN C] | > 50 | > 50 | > 50 | > 50
97 | C=CC(C)(C)c1[nH]c2ccc(C[C@@H](Cl)C(C)(C)O)cc2c1/C=C1\NC(=O)[C@H](C)NC1=O [VARIECOLORIN B] | > 50 | > 50 | > 50 | > 50
102 | C=CC(C)(C)c1[nH]c2ccc(CC=C(C)C)cc2c1/C=C1\NC(=O)C(=O)NC1=O [VARIECOLORIN J] | > 50 | > 50 | > 50 | > 50
